Measurements published in US20030229053A1, “Compounds and methods for the treatment or prevention of flavivirus infections” (Shire BioChem Inc., priority 2001, published 2003).

These compounds were tested against HCV NS5B RNA-dependent RNA polymerase (Hepatitis C virus genotype 1b, UniProt P26663) (assay: In vitro RNA-dependent RNA polymerase assay (Assay 1), polyA/oligo dT, TCA precipitation). Settings: not given.
Sequence of HCV NS5B RNA-dependent RNA polymerase (P26663 2420-3010 limits assumed): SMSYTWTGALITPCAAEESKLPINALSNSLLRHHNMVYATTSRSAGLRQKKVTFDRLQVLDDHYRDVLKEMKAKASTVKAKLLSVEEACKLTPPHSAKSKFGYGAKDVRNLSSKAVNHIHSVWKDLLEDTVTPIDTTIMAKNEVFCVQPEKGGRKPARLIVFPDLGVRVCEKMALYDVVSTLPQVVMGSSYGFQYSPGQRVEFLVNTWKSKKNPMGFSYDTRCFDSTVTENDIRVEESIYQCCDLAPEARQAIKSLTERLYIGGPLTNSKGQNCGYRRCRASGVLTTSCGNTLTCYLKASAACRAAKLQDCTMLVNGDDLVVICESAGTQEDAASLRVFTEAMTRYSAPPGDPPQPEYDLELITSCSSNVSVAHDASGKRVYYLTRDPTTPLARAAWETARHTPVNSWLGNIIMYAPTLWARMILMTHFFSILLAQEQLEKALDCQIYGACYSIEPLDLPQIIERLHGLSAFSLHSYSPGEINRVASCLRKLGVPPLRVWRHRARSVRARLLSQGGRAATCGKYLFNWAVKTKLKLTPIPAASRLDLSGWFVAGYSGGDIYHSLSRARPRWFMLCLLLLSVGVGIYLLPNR
Assay type: biochemical
Method: Purification of Recombinant NS5B Using Fast Protein Liquid Chromatography (FPLC):
Soluble NS5B protein in the S3 fraction was diluted to lower the NaCl concentration to 300 mM, then it incubated batchwise with DEAE sepharose beads (Amersham-Pharmacia) for 2 hrs at 4° C., as described by Behrens et al. (1996). Unbound material was cleared by centrifugation for 15 min at 4° C., at 25,000 rpm using a SW41 rotor (Beckman). The supernatant was further diluted to lower the NaCl concentration to 200 mM and subsequently loaded, with a flow rate of 1 ml/min, on a 5 ml HiTrap® heparin column (Amersham-Pharmacia) connected to an FPLC® system (Amersham-Pharmacia). Bound proteins were eluted in 1 ml fractions, using a continuous NaCl gradient of 0.2 to 1 M, over a 25 ml volume. NS5B-containing fractions were identified by sodium dodecyl sulfate polyacrylamide gel electrophoresis (SDS-PAGE), followed by western blotting using the anti-NS5B antiserum at a dilution of 1:2000. Positive fractions were pooled and the elution buffer was exchanged against a 50 mM NaPO4 pH 7.0, 20% glycerol, 0.5% triton X-100 and 10 mM DTT, using a PD-10 column (Amersham-Pharmacia). The sample was then loaded onto a 1 ml HiTrap® SP column (Amersham-Pharmacia), with a flow rate of 0.1 ml/min. Bound proteins were eluted using a continuous 0 to 1 M NaCl gradient over a 15 ml volume. Eluted fractions were analyzed by SDS-PAGE and western blotting. Alternatively, proteins were visualized, following SDS-PAGE, by silver staining using the Silver Stain Plus kit (BioRad) as described by the manufacturer. […]
In vitro RNA-dependent RNA Polymerase Assays Used to Evaluate Biaryl Analogues (Assay 1):
RdRp assays were conducted using the homopolymeric template/primer polyA/oligo dT. All RdRp reactions were performed in a total volume of 50 μl, and in a basic buffer consisting of 20 mM Tris-HCl pH 7.5, 1 mM DTT, 50 mM NaCl, 5 mM MgCl2, 0.5 μCi […] (3000 Ci/mmol), 15 μM cold UTP and 20 U RNasin (Promega). Standard HCV RdRp reactions contained 200 ng of purified NS5B protein. PolyA RNAs (Amersham-Pharmacia) was resuspended at 400 ng/μl. The primer oligodT15 (Canadian life technologies) was diluted to a concentration of […] (7.6 ng/μl). Templates and primers were mixed volume to volume, denatured at 95° C. for 5 min and annealed at 37° C. for 10 min. Following a two hour incubation at 22° C., reactions were stopped by the addition of 100 μg of sonicated salmon sperm DNA (Life Technologies) and 1 ml of 10% trichloroacetic acid-0.5% tetrasodium pyrophosphate (TCA-PPi). Nucleic acids were precipitated at 4° C. for 30 min after which samples were filtered on GF/C glass microfiber filters (Millipore). Membranes were subsequently washed with 25 ml of a 1% TCA-0.1% PPi solution, then air dried. Incorporated radioactivity was quantified using a liquid scintillation counter (1450-Microbeta, Wallac). Results are shown in Table 1, in the column indicated as Assay 1.
Compound O=C(O)[C@H](Cc1ccccc1)N(Cc1ccc(Br)s1)C(=O)c1ccc(Cl)cc1Cl [compound #82, (2s)-2-[(5-Bromo-thiophen-2-ylmethyl)-(2,4-dichloro-benzoyl)-amino]-3-phenyl-propionic acid] has an IC50 of less than 5 µM. For O=C(O)[C@H](Cc1ccccc1)N(Cc1ccc(-c2cc3ccccc3o2)s1)C(=O)c1ccc(Cl)cc1Cl [compound #85, (2s)-2-[(5-Benzofuran-2-yl-thiophen-2-ylmethyl)-(2,4-dichloro-benzoyl)-amino]-3-phenyl-propionic acid], the IC50 was less than 5 µM.

Same assay, conditions: polyA/oligo dT template/primer, 200 ng NS5B, 2 h at 22° C.; read-out: RNA pol Assay 1 IC50 (μm)
O=C(O)[C@H](Cc1ccccc1)N(Cc1ccc(-c2ccc(Br)cc2)o1)C(=O)c1ccc(Cl)cc1Cl [compound #59, (2s)-2-[[5-(4-Bromo-phenyl)-furan-2-ylmethyl]-(2,4-dichloro-benzoyl)-amino]-3-phenyl-propionic acid] gave an IC50 of less than 5 µM. In the case of O=C(O)[C@H](Cc1ccccc1)N(Cc1ccc(-c2ccccc2Cl)o1)C(=O)c1ccc(Cl)cc1Cl [compound #60, (2s)-2-[[5-(2-Chloro-phenyl)-furan-2-ylmethyl]-(2,4-dichloro-benzoyl)-amino]-3-phenyl-propionic acid], the IC50 is reported as less than 5 µM. Work on O=C(O)[C@H](Cc1ccccc1)N(Cc1ccc(-c2cc(C(F)(F)F)ccc2Cl)o1)C(=O)c1ccc(Cl)cc1Cl [compound #61, (2s)-2-[[5-(2-Chloro-5-trifluoromethyl-phenyl)-furan-2-ylmethyl]-(2,4-dichloro-benzoyl)-amino]-3-phenyl-propionic acid] yielded an IC50 of less than 5 µM. Compound O=C(O)[C@H](Cc1ccccc1)N(Cc1ccc(-c2ccccc2[N+](=O)[O-])o1)C(=O)c1ccc(Cl)cc1Cl [compound #62, (2s)-2-{(2,4-Dichloro-benzoyl)-[5-(2-nitro-phenyl)-furan-2-ylmethyl]-amino}-3-phenyl-propionic acid] has an IC50 of less than 5 µM. With O=C(O)C[C@H](Cc1ccccc1)N(Cc1ccc(-c2cccc(C(F)(F)F)c2)o1)C(=O)c1ccc(Cl)cc1Cl [compound #63, (3s)-3-{(2,4-Dichloro-benzoyl)-[5-(3-trifluoromethyl-phenyl)-furan-2-ylmethyl]-amino}-4-phenyl-butyric acid] the IC50 was less than 5 µM. O=C(O)[C@H](Cc1ccccc1)N(Cc1ccc(-c2ccc(Cl)c(Cl)c2)o1)C(=O)c1ccc(Cl)cc1Cl [compound #65, (2s)-2-{(2,4-Dichloro-benzoyl)-[5-(3,4-dichloro-phenyl)-furan-2-ylmethyl]-amino}-3-phenyl-propionic acid] was tested, and the IC50 was less than 5 µM. O=C(O)[C@H](Cc1ccccc1)N(Cc1ccc(-c2ccc(Cl)cc2Cl)o1)C(=O)c1ccc(Cl)cc1Cl [compound #67, (2s)-2-{(2,4-Dichloro-benzoyl)-[5-(2,4-dichloro-phenyl)-furan-2-ylmethyl]-amino}-3-phenyl-propionic acid] showed an IC50 of less than 5 µM. In the case of O=C(O)[C@H](Cc1ccccc1)N(Cc1ccc(Br)o1)C(=O)c1ccc(Cl)cc1Br [compound #68, (2s)-2-[(2-Bromo-4-chloro-benzoyl)-(5-bromo-furan-2-ylmethyl)-amino]-3-phenyl-propionic acid], the IC50 is reported as less than 5 µM. Work on O=C(O)[C@H](Cc1ccccc1)N(Cc1ccc(-c2ccc(F)c(Cl)c2)o1)C(=O)c1ccc(Cl)cc1Cl [compound #69, (2s)-2-[[5-(3-Chloro-4-fluoro-phenyl)-furan-2-ylmethyl]-(2,4-dichloro-benzoyl)-amino]-3-phenyl-propionic acid] yielded an IC50 of less than 5 µM. Work on O=C(O)[C@H](Cc1ccccc1)N(Cc1ccc(-c2ccc(Cl)c(F)c2)o1)C(=O)c1ccc(Cl)cc1Cl [compound #70, (2s)-2-[[5-(4-Chloro-3-fluoro-phenyl)-furan-2-ylmethyl]-(2,4-dichloro-benzoyl)-amino]-3-phenyl-propionic acid] yielded an IC50 of less than 5 µM. Compound O=C(O)[C@H](Cc1ccccc1)N(Cc1ccc(Br)o1)C(=O)c1ccc(Cl)cc1I [compound #71, (2s)-2-[(5-Bromo-furan-2-ylmethyl)-(4-chloro-2-iodo-benzoyl)-amino]-3-phenyl-propionic acid] has an IC50 of less than 5 µM. In the case of CCOC(=O)c1ccccc1-c1ccc(CN(C(=O)c2ccc(Cl)cc2Cl)[C@@H](Cc2ccccc2)C(=O)O)o1 [compound #72, (2s)-2-(5-{[(1s-1-Carboxy-2-phenyl-ethyl)-(2,4-dichloro-benzoyl)-amino]-methyl}-furan-2-yl)-benzoic acid ethyl ester], the IC50 is reported as less than 5 µM. O=C(O)c1ccccc1-c1ccc(CN(C(=O)c2ccc(Cl)cc2Cl)[C@@H](Cc2ccccc2)C(=O)O)o1 [compound #73, (2s)-2-(5-{[(1-Carboxy-2-phenyl-ethyl)-(2,4-dichloro-benzoyl)-amino]-methyl}-furan-2-yl)-benzoic acid] showed an IC50 of less than 5 µM. In the case of O=C(O)[C@H](Cc1ccccc1)N(Cc1ccc(-c2nccs2)o1)C(=O)c1ccc(Cl)cc1Cl [compound #74, (2s)-2-[(2,4-Dichloro-benzoyl)-(5-thiazol-2-yl-furan-2-ylmethyl)-amino]-3-phenyl-propionic acid], the IC50 is reported as less than 5 µM. Work on O=C(O)[C@H](Cc1ccccc1)N(Cc1ccco1)C(=O)c1ccc(Cl)cc1Cl [compound #75, (2s)-2-[(2,4-Dichloro-benzoyl)-furan-2-ylmethyl-amino]-3-phenyl-propionic acid] yielded an IC50 of 5 to 20 µM. O=C(O)c1cccc(-c2ccc(CN(C(=O)c3ccc(Cl)cc3Cl)[C@@H](Cc3ccccc3)C(=O)O)o2)c1 [compound #76, (2s)-3-(5-{[(1s-1-Carboxy-2-phenyl-ethyl)-(2,4-dichloro-benzoyl)-amino]-methyl}-furan-2-yl)-benzoic acid] gave an IC50 of less than 5 µM. Work on O=C(O)c1ccc(-c2ccc(CN(C(=O)c3ccc(Cl)cc3Cl)[C@@H](Cc3ccccc3)C(=O)O)o2)cc1 [compound #77, (2s)-4-(5-{[(1s-1-Carboxy-2-phenyl-ethyl)-(2,4-dichloro-benzoyl)-amino]-methyl}-furan-2-yl)-benzoic acid] yielded an IC50 of less than 5 µM. Work on O=C(O)[C@H](Cc1ccccc1)N(Cc1ccc(-c2cccc(C(F)(F)F)c2)o1)C(=O)c1ccc(Cl)cc1Br [compound #78, (2s)-2-{(2-Bromo-4-chloro-benzoyl)-[5-(3-trifluoromethyl-phenyl)-furan-2-ylmethyl]-amino}-3-phenyl-propionic acid] yielded an IC50 of less than 5 µM. Compound O=C(O)[C@H](Cc1ccccc1)N(Cc1ccc(-c2cc(F)cc(F)c2)o1)C(=O)c1ccc(Cl)cc1Cl [compound #79, (2s)-2-{(2,4-Dichloro-benzoyl)-[5-(3,5-difluoro-phenyl)-furan-2-ylmethyl]-amino}-3-phenyl-propionic acid] has an IC50 of less than 5 µM. With Cc1cccc(-c2ccc(CN(C(=O)c3ccc(Cl)cc3Cl)[C@@H](Cc3ccccc3)C(=O)O)o2)c1 [compound #80, (2s)-2-[(2,4-Dichloro-benzoyl)-(5-m-tolyl-furan-2-ylmethyl)-amino]-3-phenyl-propionic acid] the IC50 was less than 5 µM. In the case of O=C(O)[C@H](Cc1ccccc1)N(Cc1ccc(-c2cccc(F)c2)o1)C(=O)c1ccc(Cl)cc1Cl [compound #81, (2s)-2-{(2,4-Dichloro-benzoyl)-[5-(3-fluoro-phenyl)-furan-2-ylmethyl]-amino}-3-phenyl-propionic acid], the IC50 is reported as less than 5 µM. Work on O=C(O)c1ccc(-c2ccc(CN(C(=O)c3ccc(Cl)cc3Cl)[C@@H](Cc3ccccc3)C(=O)O)s2)cc1 [compound #83, (2s)-4-(5-{[(1s-1-Carboxy-2-phenyl-ethyl)-(2,4-dichloro-benzoyl)-amino]-methyl}-thiophen-2-yl)-benzoic acid] yielded an IC50 of less than 5 µM. COC(=O)c1ccc(-c2ccc(CN(C(=O)c3ccc(Cl)cc3Cl)[C@@H](Cc3ccccc3)C(=O)O)s2)cc1 [compound #84, (2s)-4-(5-{[(1-Carboxy-2-phenyl-ethyl)-(2,4-dichloro-benzoyl)-amino]-methyl}-thiophen-2-yl)-benzoic acid methyl ester] showed an IC50 of less than 5 µM. O=C(O)[C@H](Cc1ccccc1)N(Cc1cc(-c2ccc(Cl)c(Cl)c2)cs1)C(=O)c1ccc(Cl)cc1Cl [compound #87, (2s)-2-{(2,4-Dichloro-benzoyl)-[4-(3,4-dichloro-phenyl)-thiophen-2-ylmethyl]-amino}-3-phenyl-propionic acid] was tested, and the IC50 was less than 5 µM.
